Experimental data published in patent US20250115597A1, “TYK2 INHIBITORS AND COMPOSITIONS AND METHODS THEREOF” (LYNK PHARMACEUTICALS CO. LTD., priority 2021, published 2025).
pIC50: −log10 of the molar value. Where two headings read alike, the source gives them in different places.

Key:
[1] = target: T1, JAK1-JH2 domain (Homo sapiens, UniProt P23458); assay: Binding activity test for JH2 domain of JAK1 (Tb-antibody/tracer FRET)
T1 construct: IC50 on JH2 domain activity (nM)
Summary of the method: (§1)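 FRET read-out after 60 min at 25° C plus overnight at 4° C; tracer displacement detected via Tb-labelled antibody on the JH2 domain. Dose-response used 11 points at 3-fold dilution.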

[2] = tested on: pSTAT1; assay: Phosphorylation inhibition of STAT in human whole blood, IFN-alpha stimulated (flow cytometry); type: cell-based; conditions: 20 min, read-out: IC50 on pSTAT1 inhibition in h WB
Method: Phosphorylation Inhibition of STAT in Human PBMC and Human Whole Blood Testing:
The inhibitory potential of test articles in human PBMC and human whole blood assay was evaluated by the method of flow cytometry.
IFN-alpha will activate JAK1 and TYK2 kinase in T cells by binding to IFN receptors, and then lead to phosphorylation of STAT1 and STAT2. The phosphorylated STAT1 enter nuclear and promote transcription and expression of IFN-gamma. To evaluate the efficacy of TYK2i in T cells, freshly prepared human PBMC or freshly collected human whole blood will be stimulated with certain unit of human IFN-alpha (Universal Type I IFN(1MU), R&D, 11200-2) for 20 mins in incubator. After stimulation, fix cells with Phosflow™ Fix Buffer I (BD, 557870), and then collect fixed cells by centrifugation (500 g, 8 min). Wash cells once with pre-cooled PBS, and then permeabilize cells with cold Perm Buffer III buffer (BD, 558050) for 45 mins on ice. Collect cells by centrifugation (600 g, 8 min) and washed twice with cold PBS. Stain cells with anti-human CD3 (FITC Mouse Anti-Human CD3, BD, 555332) and anti-pSTAT1_Y701(Alexa Fluor 647 Mouse Anti-Stat1 (pY701), BD, 612597) antibodies. Detect pSTAT1 by flow cytometry (CytoFlex S) and analyze data with FlowJo and GraphPad Prism 8 software. IC50 values of test articles were determined using 4-parameter logistic equation.

[3] = target: T2, Ba/F3-FL-TYK2-P760L cells (Homo sapiens, UniProt P29597, P760L, cells depend on it); assay: Anti-proliferative assay, Ba/F3-FL-TYK2-P760L cells (Cell-Titer Glo); type: cell-based; conditions: 72 h, read-out: BaF3-FL-T2P760L IC50
T2 construct: BaF3-FL-T2P760L (nM)
Summary of the method: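 Compound exposure ran 72 h at 37 °C in 5% CO2 across nine 3-fold concentrations from a 20 μM top dose, added 24 h after seeding 2000 cells/well.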

[4] = target: T3, TYK2-JH2 domain (Homo sapiens, UniProt P29597); assay: Binding activity test for JH2 domain of TYK2 (Tb-antibody/tracer FRET); conditions: for JAK1/TYK2 selectivity: ratio JAK1-JH2 IC50 / TYK2-JH2 IC50
T3 construct: IC50 on JH2 domain activity (nM)
Summary of the method: as §1

[5] = Hepatocytes metabolic stability assay; type: in vitro ADME; conditions: cryopreserved hepatocytes, human hepatocytes, 1.0×10^6 cells/mL; for CLint scaled at 1 μM: read-out: Human hepatocyte Clint(liver); for half-life at 1 μM: read-out: Human hepatocyte stability T1/2
Method: Hepatocytes Metabolic Stability Assay
The vials of cryopreserved hepatocytes were removed from the liquid nitrogen container and immediately immersed in a 37° C. water bath for approximately 2 min. The melted ice pellets were transferred into tubes containing 50 mL of pre-warmed thawing medium and mixed well by gently inverting the tubes, and then centrifuged at 500 rpm for 3 minutes at room temperature. The supernatants were discarded, and cell pellets were re-suspended by adding appropriate volumes of pre-warmed incubation medium. The cells viability of each species was determined using Trypan Blue exclusion. Add 50 μL of pre-warmed 2× dosing solution to the wells designated for different time points. Then 50 μL of cells suspension (2×10^6 cells/mL) were added into appropriate wells at corresponding time points of T15, T30, T60, T120. Start timing and put the plate in an incubator at 37° C. For TO sample, add 300 μL of ACN containing internal standard to the wells, mix gently, then add 50 μL of pre-warmed hepatocytes solution (2×10^6 cells/mL). The concentration of test compound was 1 μM and 1.0×10^6 cells/mL in the final incubation. At each corresponding time point, test and control compounds reaction samples were stopped by adding 300 μL acetonitrile containing internal standard. All sample plates were thoroughly mixed and centrifuged at 5000×g for 15 minutes. The supernatants were diluted at ratio of 1:1 with ultra-pure water for test and positive controls. Then submitted for LC-MS/MS analysis.
The analyte/internal standard peak area ratios were converted to percentage remaining with the following equation: […]
The in vitro elimination constant, k of test compounds and control compounds were calculated from a log linear plot of % Remaining versus time, then the half-life (T1/2), the estimation of the in vitro hepatic intrinsic clearance (CLint) values were calculated from substrate disappearance rate in hepatocytes incubation: […]

[6] = Microsomal metabolic stability assay; type: in vitro ADME; conditions: pH 7.4, 0.5 mg/mL protein, 1 μM compound
Summary of the method: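 Parent loss was tracked by LC/MS/MS at 0, 5, 15, 30 and 45 min, with half-life derived from the ln(% remaining)–time slope. Incubation at 37 °C, pH 7.4 phosphate/EDTA buffer: 0.5 mg/mL microsomes, 1 μM compound, NADPH-regenerated (2 mM).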

[7] = human whole blood, IFN-alpha 20 mins, CD3 cells
[8] = dog liver microsomes, read-out: Dog LM Clint
[9] = dog liver microsomes, read-out: Dog LM T½
[10] = human liver microsomes, read-out: Human LM Clint
[11] = human liver microsomes, read-out: Human LM T½
[12] = rat liver microsomes, read-out: Rat LM Clint
[13] = rat liver microsomes, read-out: Rat LM T½

T1 sequence (P23458 583-855 limits assumed): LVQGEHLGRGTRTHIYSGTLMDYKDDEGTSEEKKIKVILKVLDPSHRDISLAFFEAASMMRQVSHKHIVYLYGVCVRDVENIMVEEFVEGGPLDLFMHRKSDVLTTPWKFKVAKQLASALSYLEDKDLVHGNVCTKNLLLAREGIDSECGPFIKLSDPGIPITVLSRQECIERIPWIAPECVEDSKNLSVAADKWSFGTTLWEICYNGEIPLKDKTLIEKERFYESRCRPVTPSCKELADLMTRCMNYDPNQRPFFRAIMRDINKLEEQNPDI
T2 sequence (P29597 whole entry P760L): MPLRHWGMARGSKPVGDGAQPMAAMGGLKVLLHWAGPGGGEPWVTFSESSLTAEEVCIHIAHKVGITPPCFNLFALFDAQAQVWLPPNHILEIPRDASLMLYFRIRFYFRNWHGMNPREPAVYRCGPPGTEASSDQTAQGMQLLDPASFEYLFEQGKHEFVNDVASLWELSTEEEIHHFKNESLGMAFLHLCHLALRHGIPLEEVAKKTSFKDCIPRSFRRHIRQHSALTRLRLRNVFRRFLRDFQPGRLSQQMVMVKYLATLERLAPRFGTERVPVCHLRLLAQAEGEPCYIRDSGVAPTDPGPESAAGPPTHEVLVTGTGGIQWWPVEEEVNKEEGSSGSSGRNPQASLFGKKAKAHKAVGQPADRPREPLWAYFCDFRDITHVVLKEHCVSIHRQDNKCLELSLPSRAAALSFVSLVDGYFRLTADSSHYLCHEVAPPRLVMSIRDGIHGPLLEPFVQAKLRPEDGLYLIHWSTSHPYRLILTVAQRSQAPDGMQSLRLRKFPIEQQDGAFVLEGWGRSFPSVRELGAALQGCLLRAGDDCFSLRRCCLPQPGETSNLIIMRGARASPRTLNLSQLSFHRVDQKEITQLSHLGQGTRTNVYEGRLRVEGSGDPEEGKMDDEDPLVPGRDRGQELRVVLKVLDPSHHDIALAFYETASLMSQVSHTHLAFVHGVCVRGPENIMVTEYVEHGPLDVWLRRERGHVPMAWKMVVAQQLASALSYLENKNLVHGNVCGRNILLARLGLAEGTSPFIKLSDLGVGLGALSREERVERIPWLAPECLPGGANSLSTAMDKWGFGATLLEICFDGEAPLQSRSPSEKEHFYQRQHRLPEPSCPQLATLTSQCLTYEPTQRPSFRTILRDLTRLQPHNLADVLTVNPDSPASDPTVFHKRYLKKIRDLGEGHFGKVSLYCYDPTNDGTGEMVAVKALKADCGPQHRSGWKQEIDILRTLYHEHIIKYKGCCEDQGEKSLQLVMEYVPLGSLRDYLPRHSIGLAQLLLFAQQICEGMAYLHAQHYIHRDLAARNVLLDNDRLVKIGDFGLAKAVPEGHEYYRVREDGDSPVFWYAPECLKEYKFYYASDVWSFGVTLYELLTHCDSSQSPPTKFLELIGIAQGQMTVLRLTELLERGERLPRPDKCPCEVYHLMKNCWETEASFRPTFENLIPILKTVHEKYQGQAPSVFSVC
T3 sequence (P29597 589-875 limits assumed): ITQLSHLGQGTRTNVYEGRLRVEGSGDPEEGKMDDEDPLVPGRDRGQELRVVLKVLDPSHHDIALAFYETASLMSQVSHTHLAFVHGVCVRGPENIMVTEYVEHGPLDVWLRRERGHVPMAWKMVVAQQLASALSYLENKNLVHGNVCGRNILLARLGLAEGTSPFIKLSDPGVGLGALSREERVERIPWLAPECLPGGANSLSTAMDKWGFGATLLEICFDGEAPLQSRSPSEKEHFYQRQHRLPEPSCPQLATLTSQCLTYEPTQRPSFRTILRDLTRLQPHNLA

pIC50 [1]	pIC50 [2, 7]	GI50 [3]	pIC50 [4]	JAK1/TYK2 selectivity [4]	CLint scaled at 1 μM [5]	half-life at 1 μM [5]	microsomal CLint at 1 μM [6, 8]	half-life at 1 μM [6, 9]	microsomal CLint at 1 μM [6, 10]	half-life at 1 μM [6, 11]	microsomal CLint at 1 μM [6, 12]	half-life at 1 μM [6, 13]	Structure (SMILES)	pIC50 ([2]; Homo sapiens)
7.97	6.59	69.5 nM	9.58	40.8									[2H]C([2H])([2H])NC(=O)c1cnc(NC(=O)[C@@H]2C[C@@H]2F)cc1Nc1ccc2cnn(CC)c2c1OC (relative stereo) [Example 256, 4-((1-Ethyl-7-methoxy-1H-indazol-6-yl)amino)-6-(cis-2-fluorocyclopropanecarboxamido)-N-(methyl-d3)nicotinamide]	
	6.37	214 nM											[2H]C([2H])([2H])NC(=O)c1nnc(NC(=O)C2CC2)cc1Nc1cn(C)c2ccn(C)c(=O)c12 [Example 224, 6-(Cyclopropanecarboxamido)-4-((1,5-dimethyl-4-oxo-4,5-dihydro-1H-pyrrolo[3,2-c]pyridin-3-yl)amino)-N-(methyl-d3)pyridazine-3-carboxamide]	
8.17	6.36	44.7 nM	9.58	25.7									[2H]C([2H])([2H])NC(=O)c1cnc(NC(=O)C2CC2)cc1Nc1ccn2ncc(Cl)c2c1OC [Example 235, 4-((3-Chloro-4-methoxypyrazolo[1,5-a]pyridin-5-yl)amino)-6-(cyclopropanecarboxamido)-N-(methyl-d3)nicotinamide]	
8.27	6.81	84.7 nM	9.73	28.8									[2H]C([2H])([2H])NC(=O)c1cnc(NC(=O)C2CC2)cc1Nc1ccn2ncc(CC#N)c2c1OC [Example 239, 4-((3-(Cyanomethyl)-4-methoxypyrazolo[1,5-a]pyridin-5-yl)amino)-6-(cyclopropanecarboxamido)-N-(methyl-d3)nicotinamide]	
7.93	6.54	75.7 nM	9.81	75.9									C=CCn1cc(Nc2cc(NC(=O)C3CC3)ncc2C(=O)NC)c2c(=O)n(CC)ccc21 [Example 246, 4-((1-Allyl-5-ethyl-4-oxo-4,5-dihydro-1H-pyrrolo[3,2-c]pyridin-3-yl)amino)-6-(cyclopropanecarboxamido)-N-methylnicotinamide]	
7.35	7.03	76.2 nM	9.54	154									[2H]C([2H])([2H])NC(=O)c1cnc(NC(=O)C2CC2)cc1Nc1ncc2cnn(CC(F)(F)F)c2c1OC [Example 266, 6-(Cyclopropanecarboxamido)-4-((7-methoxy-1-(2,2,2-trifluoroethyl)-1H-pyrazolo[4,3-c]pyridin-6-yl)amino)-N-(methyl-d3)nicotinamide]	

The remaining lines, values behind:

Structure (SMILES)	pIC50 [1]	pIC50 [2, 7]	GI50 [3]	pIC50 [4]	JAK1/TYK2 selectivity [4]	CLint scaled at 1 μM [5]	half-life at 1 μM [5]	microsomal CLint at 1 μM [6, 8]	half-life at 1 μM [6, 9]	microsomal CLint at 1 μM [6, 10]	half-life at 1 μM [6, 11]	microsomal CLint at 1 μM [6, 12]	half-life at 1 μM [6, 13]	pIC50 ([2]; Homo sapiens)
[2H]C([2H])([2H])NC(=O)c1cnc(NC(=O)C2CC2)cc1Nc1nn(CC)c2ccn(CC(F)(F)F)c(=O)c12 [Example 105, 6-(Cyclopropanecarboxamido)-4-((1-ethyl-4-oxo-5-(2,2,2-trifluoroethyl)-4,5-dihydro-1H-pyrazolo[4,3-c]pyridin-3-yl)amino)-N-(methyl-d3)nicotinamide]			146 nM	9.13		8.69 mL/min/kg	3.38 h	10.4 µL/min/mg	2.22 h	5.58 µL/min/mg	4.14 h	45.9 µL/min/mg	0.503 h	
[2H]C([2H])([2H])NC(=O)c1cnc(NC(=O)C2CC2)cc1Nc1cn(C)c2ccn(CCO)c(=O)c12 [Example 113, 6-(Cyclopropanecarboxamido)-4-((5-(2-hydroxyethyl)-1-methyl-4-oxo-4,5-dihydro-1H-pyrrolo[3,2-c]pyridin-3-yl)amino)-N-(methyl-d3)nicotinamide]		6.46	2390 nM											
[2H]C([2H])([2H])NC(=O)c1cnc(NC(=O)C2CC2)cc1Nc1ccc2cnn(CC)c2c1OC([2H])([2H])[2H] [Example 132, 6-(Cyclopropanecarboxamido)-4-((1-ethyl-7-(methoxy-d3)-1H-indazol-6-yl)amino)-N-(methyl-d3)nicotinamide]			70.8 nM			18.9 mL/min/kg	1.55 h			24 µL/min/mg	0.963 h			
[2H]C([2H])([2H])NC(=O)c1cnc(Nc2ccncn2)cc1Nc1cc(F)c2cnn(CC)c2c1OC [Example 157, 4-((1-Ethyl-4-fluoro-7-methoxy-1H-indazol-6-yl)amino)-N-(methyl-d3)-6-(pyrimidin-4-ylamino)nicotinamide]	7.60		53.9 nM	9.45	70.6	13.9 mL/min/kg	2.12 h	42.1 µL/min/mg	0.548 h	79.9 µL/min/mg	0.289 h	106 µL/min/mg	0.221 h	
[2H]C([2H])([2H])NC(=O)c1cnc(NC(=O)C2CC2)cc1Nc1nn(CC2CC2)c2ccn(CC(F)(F)F)c(=O)c12 [Example 203, 6-(Cyclopropanecarboxamido)-4-((1-(cyclopropylmethyl)-4-oxo-5-(2,2,2-trifluoroethyl)-4,5-dihydro-1H-pyrazolo[4,3-c]pyridin-3-yl)amino)-N-(methyl-d3)nicotinamide]	7.73	6.33	46.6 nM	9.76	106.7									
[2H]C([2H])([2H])NC(=O)c1cnc(NC(=O)C2CC2)cc1Nc1ccc2ccn(CC)c2c1OC [Example 244, 6-(Cyclopropanecarboxamido)-4-((1-ethyl-7-methoxy-1H-indol-6-yl)amino)-N-(methyl-d3)nicotinamide]	8.34		18.1 nM	9.90	36.6									6.72
